Activity calls are given as the source filed them.
Columns and labels:
[1] = target: Kallikrein-7 (Homo sapiens, UniProt P49862); test: Fluorescence Intensity-based biochemical primary high throughput dose response assay to identify activators of kallikrein-7 (K7) zymogen.
[2] = target: T1, Fibrinogen beta chain (Homo sapiens, UniProt P02675); test: Fluorescence polarization-based biochemical high throughput dose response assay to identify inhibitors that disrupt the binding of a cyclic peptide (Tn7) to the fibrin proteolytic product D-Dimer and fragment E complex [DD(E )].
T1 sequence (P02675 whole entry): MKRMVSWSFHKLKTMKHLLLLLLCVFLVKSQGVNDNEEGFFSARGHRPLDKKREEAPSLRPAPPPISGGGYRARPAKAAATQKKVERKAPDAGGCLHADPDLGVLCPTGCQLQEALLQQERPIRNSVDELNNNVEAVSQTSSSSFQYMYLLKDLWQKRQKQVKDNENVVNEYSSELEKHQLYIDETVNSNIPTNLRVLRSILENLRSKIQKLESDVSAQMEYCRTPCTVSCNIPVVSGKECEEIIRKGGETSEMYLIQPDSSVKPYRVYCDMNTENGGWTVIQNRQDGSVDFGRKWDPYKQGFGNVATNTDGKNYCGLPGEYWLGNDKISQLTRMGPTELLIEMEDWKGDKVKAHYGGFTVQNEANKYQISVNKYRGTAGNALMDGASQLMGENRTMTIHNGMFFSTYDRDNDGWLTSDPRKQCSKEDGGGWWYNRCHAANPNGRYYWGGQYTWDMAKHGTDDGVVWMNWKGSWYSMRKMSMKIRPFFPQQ

[3] = target: T1, Fibrinogen beta chain; test: Fluorescence polarization-based biochemical high throughput dose response assay to identify inhibitors that disrupt the binding of a cyclic peptide (Tn6) to the fibrin proteolytic product D-Dimer and fragment E complex [DD(E )].
[4] = target: T2, Nucleotide-binding oligomerization domain-containing protein 1 (Homo sapiens, UniProt Q9Y239); test: NOD1 signaling inhibitors, SAR follow-up, revised (AID 2333); format: functional
T2 sequence (Q9Y239 whole entry): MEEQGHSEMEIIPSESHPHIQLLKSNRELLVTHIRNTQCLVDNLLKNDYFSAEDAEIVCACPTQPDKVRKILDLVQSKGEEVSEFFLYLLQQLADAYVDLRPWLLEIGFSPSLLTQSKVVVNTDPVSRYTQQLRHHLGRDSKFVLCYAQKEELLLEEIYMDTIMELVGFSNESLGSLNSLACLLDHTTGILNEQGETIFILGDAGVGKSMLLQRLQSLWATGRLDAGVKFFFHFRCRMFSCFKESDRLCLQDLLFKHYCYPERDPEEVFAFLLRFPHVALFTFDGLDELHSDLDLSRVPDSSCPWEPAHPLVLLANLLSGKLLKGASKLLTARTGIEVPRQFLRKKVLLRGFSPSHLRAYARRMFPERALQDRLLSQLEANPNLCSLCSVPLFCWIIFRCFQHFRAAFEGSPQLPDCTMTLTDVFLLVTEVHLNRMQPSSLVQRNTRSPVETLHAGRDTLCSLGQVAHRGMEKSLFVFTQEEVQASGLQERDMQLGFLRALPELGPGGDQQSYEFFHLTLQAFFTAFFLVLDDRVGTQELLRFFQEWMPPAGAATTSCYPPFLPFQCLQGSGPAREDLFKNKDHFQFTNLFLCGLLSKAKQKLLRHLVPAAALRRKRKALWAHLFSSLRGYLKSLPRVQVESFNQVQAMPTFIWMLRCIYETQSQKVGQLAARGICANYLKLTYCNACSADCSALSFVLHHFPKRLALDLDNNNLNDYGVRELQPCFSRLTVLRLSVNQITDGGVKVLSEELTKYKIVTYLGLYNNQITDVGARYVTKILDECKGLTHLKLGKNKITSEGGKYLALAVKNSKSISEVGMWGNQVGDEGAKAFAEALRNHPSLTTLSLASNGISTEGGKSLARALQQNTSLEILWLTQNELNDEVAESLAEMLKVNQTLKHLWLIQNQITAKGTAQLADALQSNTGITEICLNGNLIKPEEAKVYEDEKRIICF

[5] = control 3'UTR Renilla luciferase suppression, dose response, counter-screen for Shn3 inhibitor project, cell-based, Clone20-Shn3RL, cherry-picked (AID 624133); format: functional
[6] = system: HEK293; test: NOD2 signaling inhibitors in MDP-stimulated cells, cell-based, uHTS, luminescence (AID 2001); format: functional; settings: Homo sapiens
[7] = reduction of Shn3 3'UTR firefly luciferase signal, dose response, Schnurri-3 inhibitor project, cell-based, Clone20 osteoblasts, cherry-pick, set 2 (AID 720490); format: functional;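 note: actives lower the luminescence signal as inhibitors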
[8] = system: HEK293; test: cells; format: functional, cell-based; settings: Homo sapiens
[9] = HepG2 cell cytotoxicity, dose response, cytotoxicity control for Shn3 inhibitor project, CellTiter-Glo, cherry-picked (AID 624134); format: functional, cell-based
[10] = system: HEK293; test: cells; settings: Homo sapiens
[11] = inhibitors of control Renilla luciferase reporter, dose response, counter-screen for Shn3 3'UTR targeting project, Clone20-Shn3RL cells, dual-Glo, cherry-pick, set 2 (AID 720724); format: functional, cell-based; settings: Dual-Go Shn3RL
[12] = system: HEK293; test: cells; format: functional, cell-based; settings: Homo sapiens; remark: listed apart in the source
[13] = target: Tumor necrosis factor (Homo sapiens, UniProt P01375); test: TNFa-triggered NF-kB activation inhibitors, SAR follow-up, cell-based, revised (AID 2337); format: functional
[14] = Shn3 3'UTR reporter inhibitors, dose response, cell-based, Clone20 osteoblasts, firefly luciferase, cherry-picked (AID 624132); format: functional;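 note: firefly luciferase luminescence from reporter carrying the Shn3 3'UTR in osteoblasts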
[15] = system: HEK293; test: NOD1 signaling inhibitors, primary screen, cell-based, luminescence, uHTS (AID 1578); format: functional; settings: Homo sapiens
[16] = growth suppression of beta-catenin-knockout colon cells, dose response, cell-based, HCT116, human colon tumor (AID 1045); format: functional;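 note: HCT116 colon tumor cells with beta catenin knocked out; cells exposed to compound for 60 hours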
[17] = target: Induced myeloid leukemia cell differentiation protein Mcl-1 (Homo sapiens, UniProt Q07820); format: functional
[18] = Vero cell cytotoxicity, dose response, cytotoxicity control for Vif-APOBEC3G degradation inhibitor project, Vero cells (AID 1117358); format: functional; settings: Human immunodeficiency virus 1, Vero
[19] = target: T3, Protein Tat (Human immunodeficiency virus type 1 group M subtype B (isolate HXB2)(HIV-1), UniProt P04608); format: functional;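 note: tat binding to TAR RNA read out by fluorescence polarization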
T3 sequence (P04608 whole entry): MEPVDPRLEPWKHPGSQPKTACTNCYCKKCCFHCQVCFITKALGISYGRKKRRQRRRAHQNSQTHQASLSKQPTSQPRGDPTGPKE

[20] = growth suppression of PTEN-null colon cells, dose response, cell-based, HCT116 PTEN knockout (AID 1047); format: functional;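 note: HCT116 colon tumor cells with PTEN knocked out; cells exposed to compound for 60 hours before readout; potency for loss of cell viability measured by luminescence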
[21] = target: T4, Estrogen receptor beta (Homo sapiens, UniProt Q92731);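 note: recombinant ER-beta bound to coactivator SRC1 peptide in presence of estradiol agonist; inhibitors block coactivator peptide binding and lower the FRET signal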
[22] = A375 melanoma cell cytotoxicity, dose response, counter-screen for MITF inhibitor project, CellTiter-Glo luminescence, dry powder, set 2 (AID 624489); format: functional, cell-based; settings: A-375;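 note: actives are compounds lowering A375 viability meaning general cytotoxicity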
[23] = A375 melanoma cell viability loss, dose response, counter-screen for MITF inhibitor project, CellTiter-Glo luminescence, dry powder, set 4 (AID 624364); format: functional, cell-based; settings: A-375;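 note: A375 melanoma cells are MITF independent so this is a counter screen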
[24] = system: P388; test: cells; format: functional; settings: Mus musculus
[25] = system: P388/ADR; test: cells; format: functional; settings: Mus musculus
[26] = HeLa 2N DNA content increase, dose response, cell-based, IC50 (AID 1117349); format: functional
[27] = system: SN12K1; test: cells; format: functional; settings: Homo sapiens
[28] = HeLa 4N DNA content increase, dose response, cell-based, IC50 (AID 1117351); format: functional
[29] = target: T4, Estrogen receptor beta; test: ERβ–SRC-3 coactivator interaction inhibitors, confirmation, orthogonal assay, biochemical, ELISA, streptavidin-HRP readout (AID 1060)
[30] = target: T5, Carboxy-terminal domain RNA polymerase II polypeptide A small phosphatase 1 (Homo sapiens, UniProt Q9GZU7); test: inhibitors of CTDSP1, concentration-response testing, biochemical assay, absorbance-based, actives from ultra-high-throughput screening (AID 540297); format: functional
T5 sequence (Q9GZU7 whole entry): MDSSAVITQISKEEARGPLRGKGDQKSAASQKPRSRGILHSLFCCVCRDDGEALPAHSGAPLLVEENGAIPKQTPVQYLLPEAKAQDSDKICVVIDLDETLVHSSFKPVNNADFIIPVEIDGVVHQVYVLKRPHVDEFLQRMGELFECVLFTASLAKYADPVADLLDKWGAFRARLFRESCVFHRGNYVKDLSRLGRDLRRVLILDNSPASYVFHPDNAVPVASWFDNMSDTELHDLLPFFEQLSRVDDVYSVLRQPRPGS

[31] = target: E3 ubiquitin-protein ligase UHRF1 (Homo sapiens, UniProt Q96T88); test: Counterscreen for inhibitors of 5-meCpG-binding domain protein 2 (MBD2): TRFRET-based biochemical high throughput dose response assay to identify inhibitors of binding of ubiquitin-like with PHD and ring finger domains 1 (UHRF1) to methylated oligonucleotide.
[32] = target: Prothrombin (Homo sapiens, UniProt P00734); test: Thrombin 1536 HTS Dose Response Confirmation. [Related pubchem assays: 1046 (Thrombin 1536 HTS; hits were confirmed in this assay)]; format: functional
[33] = half-maximal inhibitory concentration for glucagon-like peptide-1 release, STC-1 cell line, dose-response (AID 1117345); format: functional, cell-based
[34] = Glucagon-like peptide 1 release potency, NCI-H716 cell line, dose-response, half-maximal inhibitory concentration (AID 1117344); format: functional, cell-based
[35] = target: T6, Potassium channel subfamily K member 9 (Homo sapiens, UniProt Q9NPC2); test: TASK3 (KCNK9) channel inhibitors, thallium flux, SAR follow-up, selectivity assay for TASK1 inhibitor project, cell-based, FluxOR thallium flux, concentration-response (AID 652211); format: functional;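 note: potency is for inhibitors of the channel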
[36] = target: Potassium channel subfamily K member 3 (Rattus norvegicus, UniProt O54912); test: SAR analysis for the identification of selective inhibitors of the two-pore domain potassium channel TASK1(KCNK3):Automated Electrophysiology.; format: functional
[37] = target: T6, Potassium channel subfamily K member 9; test: KCNK9 (TASK3) current inhibition by patch clamp, SAR follow-up, selectivity assay for TASK1 (KCNK3) inhibitor project, cell-based, automated electrophysiology (AID 652210); format: functional
[38] = target: T7, DNA repair protein RAD52 homolog (Homo sapiens, UniProt P43351); format: functional, biochemical
T7 sequence (P43351 whole entry): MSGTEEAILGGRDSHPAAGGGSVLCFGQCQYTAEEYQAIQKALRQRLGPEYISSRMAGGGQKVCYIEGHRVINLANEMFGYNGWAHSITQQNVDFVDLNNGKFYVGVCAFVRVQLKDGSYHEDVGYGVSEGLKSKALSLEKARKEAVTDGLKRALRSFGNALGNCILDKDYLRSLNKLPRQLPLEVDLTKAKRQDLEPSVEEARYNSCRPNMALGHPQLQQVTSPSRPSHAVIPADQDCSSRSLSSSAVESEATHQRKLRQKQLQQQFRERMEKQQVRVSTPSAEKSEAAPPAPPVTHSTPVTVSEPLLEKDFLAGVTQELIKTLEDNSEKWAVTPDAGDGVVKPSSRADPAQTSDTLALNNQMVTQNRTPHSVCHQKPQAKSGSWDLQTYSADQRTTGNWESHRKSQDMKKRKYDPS

T4 sequence (Q92731 whole entry): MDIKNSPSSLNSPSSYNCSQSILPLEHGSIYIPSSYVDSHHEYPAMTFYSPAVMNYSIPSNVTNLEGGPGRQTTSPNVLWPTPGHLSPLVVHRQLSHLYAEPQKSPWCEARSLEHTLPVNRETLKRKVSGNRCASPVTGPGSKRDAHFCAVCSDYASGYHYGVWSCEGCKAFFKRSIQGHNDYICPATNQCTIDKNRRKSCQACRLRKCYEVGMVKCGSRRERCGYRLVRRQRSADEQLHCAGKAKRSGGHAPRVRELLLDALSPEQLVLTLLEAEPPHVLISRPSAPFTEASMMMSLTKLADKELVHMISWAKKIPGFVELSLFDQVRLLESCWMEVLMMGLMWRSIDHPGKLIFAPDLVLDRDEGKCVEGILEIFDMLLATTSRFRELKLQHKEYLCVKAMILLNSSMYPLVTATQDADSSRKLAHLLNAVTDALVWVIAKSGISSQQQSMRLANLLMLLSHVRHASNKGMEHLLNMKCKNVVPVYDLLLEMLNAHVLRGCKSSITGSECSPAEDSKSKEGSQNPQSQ
E3 ubiquitin-protein ligase UHRF1, sequence (Q96T88 whole entry, the tested form may be a part): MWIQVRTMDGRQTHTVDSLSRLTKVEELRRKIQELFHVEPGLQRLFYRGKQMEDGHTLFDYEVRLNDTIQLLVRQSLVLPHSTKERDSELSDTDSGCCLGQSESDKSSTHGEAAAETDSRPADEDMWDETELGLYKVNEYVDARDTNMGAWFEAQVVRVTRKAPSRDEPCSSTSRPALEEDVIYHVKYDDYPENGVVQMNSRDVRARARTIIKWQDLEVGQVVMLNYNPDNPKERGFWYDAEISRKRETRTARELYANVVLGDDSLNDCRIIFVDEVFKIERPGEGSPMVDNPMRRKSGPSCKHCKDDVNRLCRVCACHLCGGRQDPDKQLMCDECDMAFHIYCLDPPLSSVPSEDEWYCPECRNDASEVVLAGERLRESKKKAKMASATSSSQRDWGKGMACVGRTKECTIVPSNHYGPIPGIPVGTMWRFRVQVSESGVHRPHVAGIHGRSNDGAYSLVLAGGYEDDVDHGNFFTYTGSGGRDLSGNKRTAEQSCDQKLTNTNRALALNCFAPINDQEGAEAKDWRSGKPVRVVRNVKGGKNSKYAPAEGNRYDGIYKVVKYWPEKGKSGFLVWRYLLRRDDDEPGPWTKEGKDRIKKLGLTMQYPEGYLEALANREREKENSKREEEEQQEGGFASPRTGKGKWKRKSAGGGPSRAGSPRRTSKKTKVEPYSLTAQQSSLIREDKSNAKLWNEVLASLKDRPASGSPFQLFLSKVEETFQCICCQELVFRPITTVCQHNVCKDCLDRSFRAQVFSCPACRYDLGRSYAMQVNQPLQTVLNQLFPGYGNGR
T6 sequence (Q9NPC2 whole entry, the tested form may be a part): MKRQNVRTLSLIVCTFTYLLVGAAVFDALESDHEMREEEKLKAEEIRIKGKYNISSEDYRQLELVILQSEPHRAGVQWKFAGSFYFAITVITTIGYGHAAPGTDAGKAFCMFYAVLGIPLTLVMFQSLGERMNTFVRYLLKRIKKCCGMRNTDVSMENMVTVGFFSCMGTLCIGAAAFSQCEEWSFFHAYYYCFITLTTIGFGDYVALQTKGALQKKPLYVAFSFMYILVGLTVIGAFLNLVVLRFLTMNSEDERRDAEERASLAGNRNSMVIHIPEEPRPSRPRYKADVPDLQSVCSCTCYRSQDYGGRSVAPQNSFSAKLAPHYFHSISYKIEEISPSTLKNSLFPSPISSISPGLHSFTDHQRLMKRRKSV
Kallikrein-7, sequence (P49862 whole entry, the tested form may be a part): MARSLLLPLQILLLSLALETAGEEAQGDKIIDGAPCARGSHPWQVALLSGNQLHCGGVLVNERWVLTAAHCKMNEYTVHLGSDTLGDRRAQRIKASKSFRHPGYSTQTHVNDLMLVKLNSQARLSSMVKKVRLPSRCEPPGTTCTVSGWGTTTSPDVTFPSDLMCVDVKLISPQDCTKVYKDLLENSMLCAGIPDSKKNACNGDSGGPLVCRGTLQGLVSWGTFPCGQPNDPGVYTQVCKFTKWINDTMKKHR
Potassium channel subfamily K member 3, sequence (O54912 whole entry, the tested form may be a part): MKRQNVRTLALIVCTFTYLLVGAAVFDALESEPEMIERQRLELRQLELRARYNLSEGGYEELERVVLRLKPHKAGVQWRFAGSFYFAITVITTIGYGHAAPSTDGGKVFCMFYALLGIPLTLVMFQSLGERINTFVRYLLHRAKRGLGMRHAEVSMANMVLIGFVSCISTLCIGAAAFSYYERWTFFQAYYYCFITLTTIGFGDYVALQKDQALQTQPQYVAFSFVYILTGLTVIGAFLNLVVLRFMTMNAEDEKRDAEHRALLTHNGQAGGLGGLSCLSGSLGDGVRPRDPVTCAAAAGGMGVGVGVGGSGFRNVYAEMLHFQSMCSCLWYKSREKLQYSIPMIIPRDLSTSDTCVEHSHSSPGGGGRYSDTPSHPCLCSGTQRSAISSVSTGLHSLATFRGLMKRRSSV
Induced myeloid leukemia cell differentiation protein Mcl-1, sequence (Q07820 whole entry): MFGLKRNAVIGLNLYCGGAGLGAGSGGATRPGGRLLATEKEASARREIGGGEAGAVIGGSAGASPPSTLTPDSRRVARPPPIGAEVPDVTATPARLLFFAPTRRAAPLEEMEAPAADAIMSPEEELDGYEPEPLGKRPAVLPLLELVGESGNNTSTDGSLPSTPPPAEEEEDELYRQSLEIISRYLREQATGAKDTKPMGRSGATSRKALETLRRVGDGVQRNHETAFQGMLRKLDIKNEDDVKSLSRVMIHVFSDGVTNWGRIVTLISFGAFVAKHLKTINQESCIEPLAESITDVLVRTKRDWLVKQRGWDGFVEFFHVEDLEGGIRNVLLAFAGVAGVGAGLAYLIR
Tumor necrosis factor, sequence (P01375 whole entry): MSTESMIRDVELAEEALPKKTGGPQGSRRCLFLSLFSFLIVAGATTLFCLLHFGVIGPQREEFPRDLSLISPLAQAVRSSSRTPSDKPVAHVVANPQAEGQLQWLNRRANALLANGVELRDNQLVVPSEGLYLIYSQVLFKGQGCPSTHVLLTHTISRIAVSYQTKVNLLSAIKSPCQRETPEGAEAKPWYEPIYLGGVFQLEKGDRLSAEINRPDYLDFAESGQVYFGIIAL

## COCCNC(=O)Cc1c(C)c2cc3c(cc2oc1=O)OC(C)(C)CC3
[1]
  EC50: > 69.6 µM (inactive)

## Cc1cc(C)c(S(=O)(=O)NCCn2c(C)cc3ccccc32)c(C)c1
[2]
  IC50: > 83.3 µM (inactive)
[3]
  IC50: 15.1 µM (inactive)

## c1ccc(CNc2ncnc3scc(-c4cccs4)c23)nc1
[4]
  IC50: 2.69 µM (active)
[5]
  AC50: 29.8 µM (active)
[6]
  IC50: 5.05 µM (active)
[7]
  AC50: 3.71 µM (active)
[8]
  IC50: 6 µM (active)
[9]
  AC50: 67.1 µM (active)
[10]
  IC50: 13.5 µM (active)
[11]
  AC50: 6.34 µM (active)
[12]
  IC50: 19.8 µM (active)
[13]
  IC50: 3.22 µM (active)
[14]
  AC50: 3.59 µM (active)
[15]
  EC50: 3.58 µM (active)

## O=C1NC(=S)N/C1=C/c1ccc(-c2c(Br)cc([N+](=O)[O-])cc2Br)o1
[16]
  EC50: 35.2 µM (active)
[17]
  IC50: 2.48 µM (active)
[18]
  CC50: > 40 µM (active)
[19]
  IC50: > 100 µM (active)
[20]
  EC50: 40.5 µM (active)

## COCCCn1c(C(=O)NCCN2CCOCC2)cc2c(=O)n3cccc(C)c3nc21
[1]
  EC50: > 69.5 µM (inactive)

## Cc1cccc(NC(=O)C2CCN(S(=O)(=O)c3c(C)nn(C)c3C)CC2)n1
[21]
  IC50: > 50 µM (not active)

## COc1ccc(C2=C(NC(=O)c3ccc4ccccc4c3)C(=O)c3ccccc3C2=O)cc1
[22]
  AC50: > 70 µM (inactive)
[23]
  AC50: > 70 µM (inactive)

## CC(=O)Nc1ccc(S(=O)(=O)N2CCN(CCCOc3ccccc3Cl)CC2)cc1
[18]
  CC50: > 40 µM (active)

## O=C(CCBr)N1CCN(C(=O)CCBr)CC1 [PIPOBROMAN]
[24]
  GI50: 14.1 µM (inactive)
[25]
  GI50: 13.2 µM (inactive)
[26]
  IC50: > 10 µM (inactive)
[27]
  GI50: 65.3 µM (inactive)
[28]
  IC50: > 10 µM (inactive)

## Cc1nn(-c2ccccc2)c(C)c1NC(=O)Cc1cccs1
[29]
  IC50: 0.0611 µM (not active)
[21]
  IC50: 27.1 µM (active)

## NC(=O)c1ccc(N/C=C2/C(=O)NC(=O)N(Cc3ccco3)C2=O)cc1
[30]
  IC50: 3.45 µM (active)
[31]
  IC50: 31.3 µM (inactive)

## Cc1ccc(NC(=O)c2ccc(OC(=O)COc3cccc(Cl)c3)cc2)cc1
[32]
  IC50: 0.596 µM (active)

## CC1=C(C(=O)OC(C)C)C(c2cccc([N+](=O)[O-])c2)C(C(=O)OC2CN(C(c3ccccc3)c3ccccc3)C2)=C(N)N1 (configuration not stated) [AZELNIDIPINE]
[33]
  IC50: 1.23 µM (active)
[34]
  IC50: 12.8 µM (inactive)

## COc1cccc(C(=O)Nc2cccc(NC(=O)c3ccccc3)c2)c1
[35]
  IC50: 25.9 µM (active)
[36]
  IC50: 0.61 µM (active)
[37]
  IC50: 0.42 µM (active)

## CN(C)CCNC(=O)c1cccc2[nH]c(-c3ccncc3)nc12
[31]
  IC50: 10.6 µM (inactive)
[38]
  AC50: 10 µM (active)
